BindingDB's records for doi:10.1016/j.chembiol.2005.07.009 (University of Dundee, 2005)

Legend:
[1] = biological target: cAMP-specific 3',5'-cyclic phosphodiesterase 4A (Homo sapiens, UniProt P27815); test: PDE 4A Assay; conditions: pH 7.5; 30 °C
Method: Phosphodiesterase 4A (PDE4A) was assayed using an Sf9-expressed GST-fusion, and activity was monitored by hydrolysis of [3H]cAMP to [3H]AMP using the PDE-SPA kit from Amersham Pharmacia Biotech.

Endochitinase B1 [E177A] = Endochitinase B1 [E177A] (Aspergillus fumigatus, UniProt Q873X9, E177A); test: Enzyme Inhibition Assay
Endochitinase B1 [R301K] = Endochitinase B1 [R301K] (Aspergillus fumigatus, UniProt Q873X9, R301K); test: Enzyme Inhibition Assay
Endochitinase B1 [E322A] = Endochitinase B1 [E322A] (Aspergillus fumigatus, UniProt Q873X9, E322A); test: Enzyme Inhibition Assay
Endochitinase B1 [D175A] = Endochitinase B1 [D175A] (Aspergillus fumigatus, UniProt Q873X9, D175A); test: Enzyme Inhibition Assay
Endochitinase B1 [M243A] = Endochitinase B1 [M243A] (Aspergillus fumigatus, UniProt Q873X9, M243A); test: Enzyme Inhibition Assay
Endochitinase B1 [A217G] = Endochitinase B1 [A217G] (Aspergillus fumigatus, UniProt Q873X9, A217G); test: Enzyme Inhibition Assay
Endochitinase B1 [T138A] = Endochitinase B1 [T138A] (Aspergillus fumigatus, UniProt Q873X9, T138A); test: Enzyme Inhibition Assay
Endochitinase B1 [Y245F] = Endochitinase B1 [Y245F] (Aspergillus fumigatus, UniProt Q873X9, Y245F); test: Enzyme Inhibition Assay
Endochitinase B1 [D246A] = Endochitinase B1 [D246A] (Aspergillus fumigatus, UniProt Q873X9, D246A); test: Enzyme Inhibition Assay

Sequence of cAMP-specific 3',5'-cyclic phosphodiesterase 4A (P27815 whole entry, the tested form may be a part): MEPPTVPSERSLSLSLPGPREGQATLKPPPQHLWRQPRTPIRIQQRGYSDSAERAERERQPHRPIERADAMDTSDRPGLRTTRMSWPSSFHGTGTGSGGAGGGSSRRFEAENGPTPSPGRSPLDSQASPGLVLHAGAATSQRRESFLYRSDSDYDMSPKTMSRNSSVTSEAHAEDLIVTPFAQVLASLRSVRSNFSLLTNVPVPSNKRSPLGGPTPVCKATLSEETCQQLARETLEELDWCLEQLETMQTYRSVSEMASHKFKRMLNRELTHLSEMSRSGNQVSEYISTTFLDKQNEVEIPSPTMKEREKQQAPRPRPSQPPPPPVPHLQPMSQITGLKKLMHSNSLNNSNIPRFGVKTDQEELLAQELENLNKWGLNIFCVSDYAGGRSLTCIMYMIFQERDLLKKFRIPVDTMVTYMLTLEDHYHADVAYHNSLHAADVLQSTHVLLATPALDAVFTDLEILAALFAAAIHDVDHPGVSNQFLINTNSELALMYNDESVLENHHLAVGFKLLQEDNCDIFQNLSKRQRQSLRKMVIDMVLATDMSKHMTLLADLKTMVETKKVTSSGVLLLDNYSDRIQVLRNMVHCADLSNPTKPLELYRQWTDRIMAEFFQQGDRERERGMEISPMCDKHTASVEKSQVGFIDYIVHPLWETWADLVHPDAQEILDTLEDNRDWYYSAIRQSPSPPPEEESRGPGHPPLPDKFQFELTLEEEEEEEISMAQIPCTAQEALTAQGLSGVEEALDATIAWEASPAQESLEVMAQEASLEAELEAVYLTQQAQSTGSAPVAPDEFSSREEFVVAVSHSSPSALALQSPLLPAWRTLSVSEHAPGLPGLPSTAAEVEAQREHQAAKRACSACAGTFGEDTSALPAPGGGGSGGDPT

SMILES | IC50 [1] [µM] | Kd (Endochitinase B1 [E177A]) [µM] | Kd (Endochitinase B1 [R301K]) [µM] | Kd (Endochitinase B1 [E322A]) [µM] | Kd (Endochitinase B1 [D175A]) [µM] | Kd (Endochitinase B1 [M243A]) [µM] | Kd (Endochitinase B1 [A217G]) [µM] | Kd (Endochitinase B1 [T138A]) [µM] | Kd (Endochitinase B1 [Y245F]) [µM] | Kd (Endochitinase B1 [D246A]) [µM]
Cn1c(=O)c2c(ncn2C)n(C)c1=O | 747 | – | – | – | – | – | – | – | – | –
CC(=O)CCCCn1c(=O)c2c(ncn2C)n(C)c1=O [1-(5-Oxohexyl)theobromine (pentoxifylline)] | – | 36 | 17 | 45 | 100 | 18 | 77 | 65 | 64 | 62
